Measurements: article PMC12030627, “Radioiodinated Bicyclic RGD Peptide Derivatives for Enhanced Tumor Accumulation” (Pharmaceuticals, 2025)
Starred links: 1 amine or outer side, 2 acyl side, 3 side chain; linkers in the order of their positions; H or OH if unused. Positions of bridges follow the written chain, without caps; N, C: chain ends. Non-standard residues stand in square brackets, D forms with d. Residues, ends and D or L forms follow the SMILES beside them. *: point of attachment. Butanoyl(4-(4-I-phenyl)) = O=C(CCCc1ccc(I)cc1)*; TBMB = c1c(C[*:1])cc(C[*:3])cc1C[*:2]; Palmitoyl = CCCCCCCCCCCCCCCC(=O)*; Benzoyl(3-I) = O=C(c1cccc(I)c1)*; 4Abz = Nc1ccc(C(=O)O)cc1

How the values were obtained:
U-87 MG-bearing mice = assay: Biodistribution in U-87 MG tumor-bearing mice; type: in vivo, BALB/c nu-nu mice; details: U-87 MG-bearing mice, mean ± SD, n = 3
Summary of the method: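 Male BALB/c nu/nu mice bearing subcutaneous U-87 MG (right leg), or also A549 (left leg), tumors ~10 mm; 37 kBq radiotracer given IV in PBS-0.1% Tween 80. Single-tumor mice sampled 5 min–24 h, co-implanted mice at 2 h (or 30 min–4 h for dimer); organ radioactivity counted by NaI scintillation, expressed as %ID/g.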

His-tagged integrin αVβ5 = biological target: T1, His-tagged integrin αVβ5 (Homo sapiens, UniProt P06756+P18084); assay: In vitro selectivity assay, His-tag Dynabeads pulldown, integrin αVβ5; type: binding; details: cyclo-(RGDfK) 25 μM blocking; 2 h incubation at 37 °C
T1 construct: purchased R&D Systems 2528-AV
T1 sequence (P06756 31-992 limits assumed): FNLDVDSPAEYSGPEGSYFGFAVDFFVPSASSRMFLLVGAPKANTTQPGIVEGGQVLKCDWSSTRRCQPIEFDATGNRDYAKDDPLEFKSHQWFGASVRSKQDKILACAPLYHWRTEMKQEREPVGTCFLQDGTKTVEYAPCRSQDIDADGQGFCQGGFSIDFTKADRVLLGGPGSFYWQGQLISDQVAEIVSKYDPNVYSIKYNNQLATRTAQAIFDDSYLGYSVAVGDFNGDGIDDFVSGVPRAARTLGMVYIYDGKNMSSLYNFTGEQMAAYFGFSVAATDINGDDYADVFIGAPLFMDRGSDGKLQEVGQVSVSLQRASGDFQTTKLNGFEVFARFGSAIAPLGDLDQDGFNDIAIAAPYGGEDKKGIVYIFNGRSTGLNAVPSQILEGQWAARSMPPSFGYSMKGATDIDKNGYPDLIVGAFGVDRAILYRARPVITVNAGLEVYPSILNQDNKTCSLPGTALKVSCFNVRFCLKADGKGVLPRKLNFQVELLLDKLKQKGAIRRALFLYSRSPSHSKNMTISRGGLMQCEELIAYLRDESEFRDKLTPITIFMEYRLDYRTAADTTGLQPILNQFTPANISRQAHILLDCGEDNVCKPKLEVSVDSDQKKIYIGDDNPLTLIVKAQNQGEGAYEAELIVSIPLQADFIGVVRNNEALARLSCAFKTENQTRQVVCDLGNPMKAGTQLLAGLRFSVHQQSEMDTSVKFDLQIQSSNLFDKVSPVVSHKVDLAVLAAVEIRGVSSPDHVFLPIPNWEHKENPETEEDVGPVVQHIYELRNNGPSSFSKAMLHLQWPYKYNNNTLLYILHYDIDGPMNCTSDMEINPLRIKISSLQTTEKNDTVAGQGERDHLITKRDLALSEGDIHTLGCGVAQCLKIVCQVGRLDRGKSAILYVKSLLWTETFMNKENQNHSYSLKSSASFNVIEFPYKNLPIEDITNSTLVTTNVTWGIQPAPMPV
T1 sequence (P18084 24-719 limits assumed): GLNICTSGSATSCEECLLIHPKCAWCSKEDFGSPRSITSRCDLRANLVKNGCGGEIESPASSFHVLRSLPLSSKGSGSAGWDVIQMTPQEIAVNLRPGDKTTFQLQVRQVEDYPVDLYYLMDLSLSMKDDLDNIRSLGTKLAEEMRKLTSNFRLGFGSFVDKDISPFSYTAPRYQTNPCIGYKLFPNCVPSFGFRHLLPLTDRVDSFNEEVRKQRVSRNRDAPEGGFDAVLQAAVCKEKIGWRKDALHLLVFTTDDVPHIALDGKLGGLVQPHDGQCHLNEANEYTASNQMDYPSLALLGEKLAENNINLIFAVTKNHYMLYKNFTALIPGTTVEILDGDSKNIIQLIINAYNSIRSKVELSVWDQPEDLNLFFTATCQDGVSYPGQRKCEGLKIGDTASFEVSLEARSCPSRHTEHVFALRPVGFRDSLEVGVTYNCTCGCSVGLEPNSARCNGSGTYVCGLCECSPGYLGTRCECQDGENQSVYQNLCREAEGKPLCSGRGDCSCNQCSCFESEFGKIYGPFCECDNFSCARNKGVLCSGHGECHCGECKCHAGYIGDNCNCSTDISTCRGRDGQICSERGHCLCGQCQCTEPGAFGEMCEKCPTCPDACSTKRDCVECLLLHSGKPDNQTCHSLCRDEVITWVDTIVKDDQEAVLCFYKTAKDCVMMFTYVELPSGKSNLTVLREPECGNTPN
Experimental: Binding assays were conducted following our previously reported method, using the Dynabeads™ His-Tag Isolation and Pulldown protocol (Thermo Fisher Scientific, Tokyo, Japan). Briefly, [^125I]bcRGDpal or [^125I]bcRGDiba (10 kBq/sample) was incubated at 37 °C for 2 h in 200 μL of incubation buffer (3.25 mM sodium phosphate, 70 mM NaCl, 0.01% Tween 20, pH 7.4) with 10 pmol of His-tagged integrin αVβ3, αVβ5, or α5β1 proteins (αVβ3: IT3-H52E3, ACRO Biosystems, Newark, DE, USA; αVβ5: 2528-AV, R&D Systems, Minneapolis, MN, USA; α5β1: CT014-H2508H, Sino Biological, Beijing, China). For the inhibition group, cyclo(RGDfK) (25 μM, S7834, Selleck, Houston, TX, USA) was preincubated with the integrin protein for 30 min at 37 °C. Next, A 2× binding buffer (100 mM sodium phosphate, 600 mM NaCl, 0.01% Tween 20, pH 8.0) was mixed with the solution at a 1:1 volume ratio and incubated with 5 μL of magnetic beads at 37 °C for 10 min to enable protein immobilization. Following immobilization, the beads were rinsed three times with the binding buffer, and radioactivity was measured using a NaI well-type scintillation counter (2480 Wizard2; PerkinElmer Japan, Yokohama, Japan). Protein binding was expressed as %dose/nmol protein.

[1] = 5 min after i.v. administration
[2] = 30 min after i.v. administration

| SMILES | U87/Blood radioactivity ratio (U-87 MG-bearing mice; [1]) | U87/Blood radioactivity ratio (U-87 MG-bearing mice; [2]) | U87/Muscle radioactivity ratio (U-87 MG-bearing mice; [2]) | U87/Blood radioactivity ratio (U-87 MG-bearing mice; 1 h after i.v. administration) | U87/Muscle radioactivity ratio (U-87 MG-bearing mice; 1 h after i.v. administration) | U87/Blood radioactivity ratio (U-87 MG-bearing mice; 2 h after i.v. administration) | U87/Muscle radioactivity ratio (U-87 MG-bearing mice; 2 h after i.v. administration) | U87/Blood radioactivity ratio (U-87 MG-bearing mice; 6 h after i.v. administration) | U87/Muscle radioactivity ratio (U-87 MG-bearing mice; 6 h after i.v. administration) | Radioactivity in thyroid (U-87 MG-bearing mice; 12 h after i.v. administration) | U87/Blood radioactivity ratio (U-87 MG-bearing mice; 12 h after i.v. administration) | U87/Muscle radioactivity ratio (U-87 MG-bearing mice; 12 h after i.v. administration) | Radioactivity in U-87 MG tumor (U-87 MG-bearing mice; 24 h after i.v. administration) | Radioactivity in brain (U-87 MG-bearing mice; 24 h after i.v. administration) | Radioactivity in thyroid (U-87 MG-bearing mice; 24 h after i.v. administration) | U87/Blood radioactivity ratio (U-87 MG-bearing mice; 24 h after i.v. administration) | U87/Muscle radioactivity ratio (U-87 MG-bearing mice; 24 h after i.v. administration) | Radioactivity accumulation in αVβ5 protein, treatment versus inhibitor group (His-tagged integrin αVβ5) | U87/Muscle radioactivity ratio (U-87 MG-bearing mice; [1]) |
| --- | --- | --- | --- | --- | --- | --- | --- | --- | --- | --- | --- | --- | --- | --- | --- | --- | --- | --- | --- |
| CCCCCCCCCCCCCCCC(=O)N[C@@H](CCCCNC(=O)c1cccc(I)c1)C(=O)N1CCC[C@H]1C(=O)N1CCC[C@H]1C(=O)N1CCC[C@H]1C(=O)N[C@@H](CO)C(=O)NCC(=O)Nc1ccc(C(=O)N[C@@H](CO)C(=O)NCC(=O)N[C@H]2CSCc3cc4cc(c3)CSC[C@@H](NC(=O)[C@H](CCC(N)=O)NC(=O)[C@@H]3CCCN3C(=O)[C@H](Cc3c[nH]cn3)NC2=O)C(=O)N[C@@H](CCCNC(=N)N)C(=O)NCC(=O)N[C@@H](CC(=O)O)C(=O)N[C@@H](C(N)=O)CSC4)cc1 [[^125I]bcRGDpal] (Palmitoyl-K(Benzoyl(3-I))PPPSG[4Abz]SGCHPQ[dC]RGD[dC]-NH2; linker 10-14-18 via TBMB) | 0.1 ± 0.0 | 0.3 ± 0.0 | 2.1 ± 0.3 | 0.4 ± 0.1 | 2.9 ± 0.2 | 0.5 ± 0.0 | 3.7 ± 0.4 | 0.5 ± 0.1 | 3.3 ± 0.8 | 0.0 ± 0.0 % injected dose | 0.4 ± 0.0 | 3.4 ± 0.5 | 0.3 % ID/g | 0.0 ± 0.0 % injected dose per gram of tissue | 0.0 ± 0.0 % injected dose | 0.5 ± 0.1 | 2.4 ± 0.4 | No differences |  |
| N=C(N)NCCC[C@@H]1NC(=O)[C@H]2CSCc3cc(cc(c3)CSC[C@H](C(N)=O)NC(=O)[C@H](CC(=O)O)NC(=O)CNC1=O)CSC[C@H](NC(=O)CNC(=O)[C@H](CO)NC(=O)c1ccc(NC(=O)CNC(=O)[C@H](CO)NC(=O)[C@@H]3CCCN3C(=O)[C@@H]3CCCN3C(=O)[C@@H]3CCCN3C(=O)[C@H](CCCCNC(=O)c3cccc(I)c3)NC(=O)CCCc3ccc(I)cc3)cc1)C(=O)N[C@@H](Cc1c[nH]cn1)C(=O)N1CCC[C@H]1C(=O)N[C@@H](CCC(N)=O)C(=O)N2 [[^125I]bcRGDiba] ({Butanoyl(4-(4-I-phenyl))}-K(Benzoyl(3-I))PPPSG[4Abz]SGCHPQ[dC]RGD[dC]-NH2; linker 10-14-18 via TBMB) | 0.1 ± 0.0 | 0.2 ± 0.0 | 2.3 ± 0.6 | 0.2 ± 0.0 | 2.3 ± 0.4 | 0.3 ± 0.0 | 2.4 ± 0.3 | 0.3 ± 0.0 | 2.5 ± 0.3 | 0.0 ± 0.0 % injected dose | 0.4 ± 0.1 | 2.6 ± 0.3 | 0.5 % ID/g | 0.0 ± 0.0 % injected dose per gram of tissue | 0.0 ± 0.0 % injected dose | 0.4 ± 0.1 | 2.1 ± 0.4 | No differences | 1.6 ± 0.3 |
